We go through 11 compounds from ChEMBL document CHEMBL1201862, “PubChem BioAssay data set” (2004).

Structures are written as SMILES.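 Step 1: Grow cells in 96-well plates. Step 2: Expose to compound for 48 hours at 5 concentrations. Step 3: Interpolate endpoints linearly; if unreached, use highest concentration. At the GI50, growth is halved.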 The source made the active and inactive calls. Cut-off read from the data, not from the text of the source: active = GI50 up to about 1.1 µM and inactive = higher.

Among the test systems are A549; CCRF-CEM; EKVX; HCC 2998; HCT-116; HCT-15; HOP-92; K562; MOLT-4; SF-268; SF-539; SK-MEL-28; SK-OV-3; SN12C; SW-620; U-251; UO-31; OVCAR-5; RXF 393.
What all share (experiment): inhibition of tumour cell growth, NCI panel, 48 h

As for `Cc1cccc2c(=O)c3cccc([C@H](C)C(=O)O)c3oc12`, the GI50 is > 100 µM (inactive) with A549; > 100 µM (inactive) with CCRF-CEM; > 100 µM (inactive) with EKVX; > 100 µM (inactive) in the assay on HCC 2998; > 100 µM (inactive) in the assay with HCT-116; more than 100 µM with HCT-15. The GI50 in the assay with HOP-92, in the assay on K562, in the assay with MOLT-4, with SF-268, with SF-539 and with SK-MEL-28 was > 100 µM (inactive) in each case. In addition, the GI50 with SK-OV-3, with SN12C, with SW-620, in the assay on U-251 and in the assay on UO-31 was > 100 µM (inactive) each time.

`CCCCn1c(C)c(C(=O)OCC)c2cc(OCc3ccc(C(=O)Nn4c(C)ccc4C)cc3)c(Br)cc21`: the GI50 was > 100 µM (inactive) in the assay on A549; > 100 µM (inactive) in the assay with CCRF-CEM; > 100 µM (inactive) in the assay with EKVX; > 100 µM (inactive) in the assay on HCC 2998; > 100 µM (inactive) with HCT-116; more than 100 µM in the assay on HCT-15. Besides, the GI50 with HOP-92, in the assay with K562, with MOLT-4, in the assay with OVCAR-5, in the assay with SF-268 and with SF-539 was > 100 µM (inactive) in each case. Besides, the GI50 with SK-MEL-28, in the assay with SK-OV-3, in the assay on SN12C, with SW-620 and with U-251 was > 100 µM (inactive) each time.

For `COc1ccc(/C=C2\N=C(c3ccccc3)N(C3Nc4cc5c(cc4S3)NC(N3C(=O)/C(=C/c4ccc(OC)cc4)N=C3c3ccccc3)S5)C2=O)cc1` (stereo not given), the GI50 is 36.8 µM (inactive) with A549; 16.7 µM (inactive) in the assay on EKVX; 30.1 µM (inactive) in the assay with HCC 2998; 42.3 µM (inactive) in the assay on HCT-116; 38.5 µM in the assay on HCT-15; > 100 µM (inactive) with HOP-92. In addition, the GI50 in the assay with K562 was 58.2 µM (inactive); in the assay with MOLT-4, 23.6 µM (inactive); in the assay on OVCAR-5, > 100 µM (inactive); with RXF 393, > 100 µM (inactive); with SF-268, 29.6 µM (inactive); in the assay with SF-539, 11.6 µM (inactive). Also, the GI50 with SK-MEL-28 was > 100 µM (inactive); with SW-620, 61.5 µM (inactive); in the assay with U-251, 22.9 µM (inactive); in the assay with UO-31, > 100 µM (inactive).

For the compound `CC(C)[C@H]1NC(=O)[C@H]2N=C(O[C@@H]2C)[C@@H]2CCCN2C(=O)[C@H](Cc2ccccc2)NC(=O)[C@@H]2COC(=N2)[C@@H](Cc2ccccc2)NC(=O)[C@@H]2COC1=N2`, the GI50 is > 100 µM (inactive) in the assay on A549; > 100 µM (inactive) in the assay with CCRF-CEM; > 100 µM (inactive) in the assay on EKVX; > 100 µM (inactive) in the assay with HCC 2998; > 100 µM (inactive) in the assay with HCT-116; more than 100 µM in the assay with HCT-15. In addition, the GI50 in the assay with K562, with MOLT-4, with OVCAR-5, with RXF 393, in the assay on SF-268 and with SF-539 was > 100 µM (inactive) in each case. For the same compound, the GI50 with SK-MEL-28, in the assay on SK-OV-3, with SN12C, in the assay with SW-620, in the assay on U-251 and in the assay with UO-31 was > 100 µM (inactive) each time.

Take `N#Cc1nc(-c2cccc(-c3nc(C#N)c(N)o3)n2)oc1N`: the GI50 is > 100 µM (inactive) with A549; 21.2 µM (inactive) in the assay on CCRF-CEM; > 100 µM (inactive) in the assay with EKVX; > 100 µM (inactive) with HCC 2998; > 100 µM (inactive) with HCT-116; more than 100 µM with HCT-15. The GI50 with HOP-92, in the assay on K562, in the assay with MOLT-4, in the assay with OVCAR-5, in the assay on SF-268 and in the assay with SF-539 was > 100 µM (inactive) each time. For the same compound, the GI50 in the assay on SK-MEL-28, in the assay on SK-OV-3, in the assay with SN12C, in the assay on SW-620, in the assay on U-251 and in the assay on UO-31 was > 100 µM (inactive) each time.

As for `CCOC(=O)c1cc2c(OC)cc(OC)cc2oc1=O`, the GI50 with A549 was > 100 µM (inactive); with CCRF-CEM, > 100 µM (inactive); in the assay on EKVX it was > 100 µM (inactive); with HCC 2998, > 100 µM (inactive); in the assay with HCT-116, > 100 µM (inactive); in the assay with HCT-15 it was more than 100 µM. Besides, the GI50 with HOP-92 is 46.8 µM (inactive); with K562 it was > 100 µM (inactive); in the assay on MOLT-4, > 100 µM (inactive); with OVCAR-5, > 100 µM (inactive); with RXF 393, 57.3 µM (inactive); with SF-268 it was 42.3 µM (inactive). For the same compound, the GI50 in the assay on SF-539 is > 100 µM (inactive); in the assay on SK-MEL-28, > 100 µM (inactive); with SN12C it was > 100 µM (inactive); in the assay with SW-620, > 100 µM (inactive); with U-251, 37.7 µM (inactive).

Take `Cc1cccc(C(C)O)n1` (stereo not given): the GI50 is > 100 µM (inactive) in the assay on A549; > 100 µM (inactive) in the assay with CCRF-CEM; > 100 µM (inactive) in the assay with EKVX; > 100 µM (inactive) in the assay with HCC 2998; > 100 µM (inactive) in the assay with HCT-116; more than 100 µM in the assay on HCT-15. Besides, the GI50 in the assay with K562, in the assay with MOLT-4, in the assay on OVCAR-5, in the assay with SF-268, with SF-539 and in the assay on SK-MEL-28 was > 100 µM (inactive) throughout. Besides, the GI50 in the assay with SK-OV-3, in the assay with SN12C, in the assay on SW-620, in the assay on U-251 and in the assay with UO-31 was > 100 µM (inactive) in each case.

On to `O=[N+]([O-])/C(Cl)=C(\NCCN/C(C(Cl)=C(Cl)Cl)=C(/Cl)[N+](=O)[O-])C(Cl)=C(Cl)Cl`, for which the GI50 is 45.2 µM (inactive) in the assay with A549; 27 µM (inactive) in the assay with CCRF-CEM; > 100 µM (inactive) in the assay with EKVX; 83.6 µM (inactive) in the assay on HCC 2998; 39.1 µM (inactive) in the assay with HCT-116; 36.6 µM with HCT-15. The GI50 with HOP-92 is 17.9 µM (inactive); in the assay on K562 it was 27.8 µM (inactive); in the assay on MOLT-4, 22 µM (inactive); in the assay on OVCAR-5, > 100 µM (inactive); with SF-268 it was 40.8 µM (inactive); in the assay with SF-539, > 100 µM (inactive). Further, the GI50 was 57.8 µM (inactive) in the assay on SK-MEL-28; 69.5 µM (inactive) in the assay with SK-OV-3; 70.5 µM (inactive) with SN12C; 47.5 µM (inactive) with SW-620; 48.8 µM (inactive) in the assay with U-251; > 100 µM (inactive) in the assay with UO-31.

On to `O=C(O)c1ccc(N/C(=C(/C(Cl)=C(Cl)Cl)[N+](=O)[O-])n2nnc3ccccc32)cc1`, for which the GI50 with A549 was > 100 µM (inactive); in the assay on CCRF-CEM, > 100 µM (inactive); in the assay on EKVX it was > 100 µM (inactive); in the assay on HCC 2998, > 100 µM (inactive); with HCT-116, > 100 µM (inactive); in the assay on HCT-15 it was more than 100 µM. Besides, the GI50 in the assay with K562, in the assay on MOLT-4, in the assay with OVCAR-5, with SF-268, in the assay on SF-539 and in the assay on SK-MEL-28 was > 100 µM (inactive) each time. Besides, the GI50 in the assay on SK-OV-3, in the assay on SN12C, in the assay with SW-620, with U-251 and with UO-31 was > 100 µM (inactive) throughout.

For `Clc1nc2n(c1/C=C/c1cccs1)CCS2`, the GI50 in the assay on A549 was 34.5 µM (inactive); with CCRF-CEM, 10.9 µM (inactive); in the assay on EKVX it was 5.43 µM (inactive); with HCC 2998, 35.5 µM (inactive); with HCT-116, 25.4 µM (inactive); with HCT-15 it was 37 µM. Moreover, the GI50 with K562 was 47.2 µM (inactive); with MOLT-4, 11.3 µM (inactive); in the assay with OVCAR-5 it was 27.3 µM (inactive); with RXF 393 it was 40.8 µM (inactive); in the assay on SF-268, 40.4 µM (inactive); in the assay with SK-MEL-28, 34.8 µM (inactive). Moreover, the GI50 in the assay on SK-OV-3 is 30.7 µM (inactive); in the assay on SN12C, 31.4 µM (inactive); with SW-620, 26.9 µM (inactive); in the assay with U-251, 28.1 µM (inactive); with UO-31 it was 31 µM (inactive).

On to `COc1ccc(Nc2nc(NNC(=O)Cc3ccccc3)nc(NNC(=O)c3ccncc3)n2)cc1`, for which the GI50 in the assay with A549 was > 10 µM (inactive); in the assay with CCRF-CEM it was > 10 µM (inactive); in the assay with EKVX, 0.955 µM (active); in the assay on HCC 2998 it was > 10 µM (inactive); with HCT-116, > 10 µM (inactive); with HCT-15, more than 10 µM. The GI50 in the assay with HOP-92, in the assay on K562, in the assay with MOLT-4, with OVCAR-5, in the assay with SF-268 and in the assay with SF-539 was > 10 µM (inactive) in each case. Moreover, the GI50 in the assay on SK-MEL-28, with SK-OV-3, in the assay on SN12C, in the assay with SW-620, in the assay on U-251 and in the assay with UO-31 was > 10 µM (inactive) in each case.
